{"source": "ChEMBL document CHEMBL1140149", "about": "“Discovery of bioavailable 4,4-disubstituted piperidines as potent ligands of the chemokine receptor 5 and inhibitors of the human immunodeficiency virus-1” (J Med Chem, 2008)"}
{"species_on_record": "Rattus norvegicus", "assay": "not given", "conditions": "not given", "units": {"LBF": "%"}}
{"smiles": "Cc1nc2ccccc2n1[C@H]1C[C@H]2CC[C@@H](C1)N2CCC1(c2cccc(Cl)c2)CCN(C(=O)C(C)(C)C)CC1", "LBF": 38}
{"tested_on": "not listed separately", "assay": "Bioavailability in rat at 1 mg/kg, po", "conditions": "in vivo", "units": {"bioavailability": "%"}}
{"smiles": "Cc1nc2ccccc2n1[C@H]1C[C@H]2CC[C@@H](C1)N2CCC1(c2cccc(Cl)c2)CCN(C(=O)C(C)(C)C)CC1", "bioavailability": 26}
{"tested_on": "not listed separately", "assay": "in vivo", "conditions": "rat", "units": {"clearance": "mL/min/kg"}}
{"smiles": "Cc1nc2ccccc2n1[C@H]1C[C@H]2CC[C@@H](C1)N2CCC1(c2cccc(Cl)c2)CCN(C(=O)C(C)(C)C)CC1", "clearance": 21}
{"tested_on": "Human immunodeficiency virus 1", "assay": "Antiviral activity against HIV1 Ba-L in human PBL cells by MTS assay", "type": "functional, organism-based", "conditions": "Human immunodeficiency virus 1, Ba-L", "units": {"IC50": "nM"}}
{"smiles": "Cc1nc2ccccc2n1[C@H]1C[C@H]2CC[C@@H](C1)N2CCC1(c2cccc(Cl)c2)CCN(C(=O)C(C)(C)C)CC1", "IC50": 1.91}
{"tested_on": "Human immunodeficiency virus 1", "assay": "Antiviral activity against HIV1 Ba-L in human HOS cells by MTS assay", "type": "functional, organism-based", "conditions": "Human immunodeficiency virus 1, Ba-L", "units": {"IC50": "nM"}}
{"smiles": "Cc1nc2ccccc2n1[C@@H]1C[C@H]2CC[C@@H](C1)N2CCC1(c2ccccc2)CCN(C(=O)OC(C)(C)C)CC1", "IC50": 1260}
{"smiles": "Cc1nc2ccccc2n1[C@H]1C[C@H]2CC[C@@H](C1)N2CCC1(c2ccc(Cl)c(Cl)c2)CCN(C(=O)C(C)(C)C)CC1", "IC50": 33.9}
{"smiles": "Cc1nc2ccccc2n1[C@H]1C[C@H]2CC[C@@H](C1)N2CCC1(c2cccc(Cl)c2)CCN(C(=O)C(C)(C)C)CC1", "IC50": 14.5}
{"target": "C-C chemokine receptor type 5 (Homo sapiens, UniProt P51681)", "sequence (P51681 whole entry)": "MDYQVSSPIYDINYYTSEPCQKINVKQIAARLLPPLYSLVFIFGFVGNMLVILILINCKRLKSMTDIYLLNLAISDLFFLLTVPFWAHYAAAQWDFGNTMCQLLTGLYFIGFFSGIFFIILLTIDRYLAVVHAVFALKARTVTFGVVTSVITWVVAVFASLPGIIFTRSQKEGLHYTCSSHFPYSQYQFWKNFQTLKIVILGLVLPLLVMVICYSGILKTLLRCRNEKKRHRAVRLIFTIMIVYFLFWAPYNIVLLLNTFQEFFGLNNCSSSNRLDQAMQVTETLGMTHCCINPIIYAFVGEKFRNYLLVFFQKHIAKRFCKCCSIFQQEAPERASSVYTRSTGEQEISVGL", "assay": "Displacement of [125I]MIP-1beta from human CCR5 expressed in CHO cells", "type": "cell-based", "conditions": "not given", "units": {"IC50": "nM"}}
{"smiles": "O=C1CCC(CCCN2CCC(n3c(=O)[nH]c4ccccc43)CC2)(c2ccc(Cl)c(Cl)c2)CN1Cc1ccccc1", "note": "(stereo not given)", "IC50": 20000}
{"smiles": "Cc1nc2ccccc2n1[C@H]1C[C@H]2CC[C@@H](C1)N2CCCC1(c2ccccc2)CCN(C(=O)OC(C)(C)C)CC1", "IC50": "> 31600"}
{"smiles": "Cc1nc2ccccc2n1[C@@H]1C[C@H]2CC[C@@H](C1)N2CCCC1(c2ccc(Cl)c(Cl)c2)CCN(C(=O)OC(C)(C)C)CC1", "IC50": 20000}
{"smiles": "Cc1nc2ccccc2n1[C@@H]1C[C@H]2CC[C@@H](C1)N2CCCC1(c2ccccc2)CCN(C(=O)c2ccco2)CC1", "IC50": 5010}
{"smiles": "Cc1nc2ccccc2n1[C@@H]1C[C@H]2CC[C@@H](C1)N2CCCC1(c2ccccc2)CCN(C(=O)c2ccccc2)CC1", "IC50": 1260}
{"smiles": "Cc1nc2ccccc2n1[C@@H]1C[C@H]2CC[C@@H](C1)N2CCC1(c2ccccc2)CCN(C(=O)OC(C)(C)C)CC1", "IC50": 63.1}
{"smiles": "Cc1nc2ccccc2n1[C@@H]1C[C@H]2CC[C@@H](C1)N2CCC1(c2ccccc2)CCN(C(=O)OCc2ccccc2)CC1", "IC50": 63.1}
{"smiles": "Cc1nc2ccccc2n1[C@H]1C[C@H]2CC[C@@H](C1)N2CCC1(c2ccc(Cl)c(Cl)c2)CCN(C(=O)c2ccccc2)CC1", "IC50": 15.8}
{"smiles": "Cc1nc2ccccc2n1[C@H]1C[C@H]2CC[C@@H](C1)N2CCC1(c2cccc(Cl)c2)CCN(C(=O)c2ccccc2)CC1", "IC50": 5.25}
{"smiles": "Cc1nc2ccccc2n1[C@H]1C[C@H]2CC[C@@H](C1)N2CCC1(c2ccc(Cl)c(Cl)c2)CCN(C(=O)C(C)(C)C)CC1", "IC50": 7.24}
{"smiles": "Cc1nc2ccccc2n1[C@H]1C[C@H]2CC[C@@H](C1)N2CCC1(c2ccc(Cl)c(Cl)c2)CCN(C(=O)OC(C)(C)C)CC1", "IC50": 29.5}
{"smiles": "Cc1nc2ccccc2n1[C@H]1C[C@H]2CC[C@@H](C1)N2CCC1(c2cccc(Cl)c2)CCN(C(=O)OC(C)(C)C)CC1", "IC50": 5.01}
{"smiles": "Cc1nc2ccccc2n1[C@H]1C[C@H]2CC[C@@H](C1)N2CCC1(c2ccc(Cl)c(Cl)c2)CCN(C(=O)OC(C)(C)C)C1", "note": "(stereo not given in full)", "IC50": 776}
{"smiles": "O=C(c1ccccc1)N1CCCC(CCCN2CCC(n3c(=O)[nH]c4ccccc43)CC2)(c2ccc(Cl)c(Cl)c2)C1", "note": "(stereo not given)", "IC50": 1580}
{"smiles": "CN1CN(c2ccccc2)C2(CCN(CCCC3(c4ccc(Cl)c(Cl)c4)CCN(C(=O)c4ccco4)C3)CC2)C1=O", "note": "(stereo not given)", "IC50": 7080}
{"smiles": "O=C1NCN(c2ccccc2)C12CCN(CCOC1(c3ccc(Cl)c(Cl)c3)CCN(S(=O)(=O)c3ccccc3)CC1)CC2", "IC50": 2400}
{"smiles": "O=C1CC(CCCN2CCC3(CC2)C(=O)NCN3c2ccccc2)(c2ccc(Cl)c(Cl)c2)CN1Cc1ccccc1", "note": "(stereo not given)", "IC50": 1020}
{"smiles": "NC(=O)C1(Nc2ccccc2)CCN(CCCC2(c3ccc(Cl)c(Cl)c3)CCCN(C(=O)c3ccccc3)C2)CC1", "note": "(stereo not given)", "IC50": "> 31600"}
{"smiles": "CC(C)(C)OC(=O)N1CCC(CCN2CCC3(CC2)C(=O)NCN3c2ccccc2)(c2ccccc2)CC1", "IC50": 4570}
{"smiles": "CC(C)(C)OC(=O)N1CCC(CCCN2CCC(n3c(=O)[nH]c4ccccc43)CC2)(c2ccc(Cl)c(Cl)c2)CC1", "IC50": 7940}
{"smiles": "CC(C)(C)OC(=O)N1CCC(CCCN2CCC(n3c(=O)[nH]c4ccccc43)CC2)(c2ccccc2)CC1", "IC50": 3980}
{"smiles": "O=C(c1ccco1)N1CCC(CCCN2CCC3(CC2)C(=O)NCN3C2CCCCC2)(c2ccc(Cl)c(Cl)c2)C1", "note": "(stereo not given)", "IC50": "> 31600"}
{"smiles": "O=C1CC(CCN2CCC3(CC2)C(=O)NCN3c2ccccc2)(c2ccc(Cl)c(Cl)c2)CN1Cc1ccccc1", "note": "(stereo not given)", "IC50": 9330}
{"smiles": "O=C1NCN(c2ccccc2)C12CCN(CCCC1(c3ccc(Cl)c(Cl)c3)CCN(Cc3ccco3)C1)CC2", "note": "(stereo not given)", "IC50": 5250}
{"smiles": "O=C(c1ccco1)N1CCC(CCN2CCC3(CC2)C(=O)NCN3c2ccccc2)(c2ccccc2)C1", "note": "(stereo not given)", "IC50": 9330}
{"smiles": "O=C(c1ccco1)N1CCC(OCCN2CCC3(CC2)C(=O)NCN3c2ccccc2)(c2ccc(Cl)c(Cl)c2)CC1", "IC50": 3470}
{"smiles": "O=C1NCN(c2ccccc2)C12CCN(CCCC1(c3ccc(Cl)c(Cl)c3)CN(S(=O)(=O)c3ccccc3)C1)CC2", "IC50": 9120}
{"smiles": "O=C1NCN(c2ccccc2)C12CCN(CCOC1(c3ccc(Cl)c(Cl)c3)CCN(S(=O)(=O)c3ccccc3)C1)CC2", "note": "(stereo not given)", "IC50": 20400}
{"smiles": "O=C1CCC(CCCN2CCC3(CC2)C(=O)NCN3c2ccccc2)(c2ccc(Cl)c(Cl)c2)CN1Cc1ccccc1", "note": "(stereo not given)", "IC50": 1000}
{"smiles": "Cc1nc2ccccc2n1C1CC2COCC(C1)N2CCC1(c2ccccc2)CCN(C(=O)c2ccccc2)CC1", "note": "(stereo not given)", "IC50": "> 3160"}
{"smiles": "O=C(c1ccco1)N1CCC(CCCN2CCC3(CC2)C(=O)NC(=O)N3c2ccccc2)(c2ccc(Cl)c(Cl)c2)C1", "note": "(stereo not given)", "IC50": "> 31600"}
{"smiles": "O=C(c1ccccc1)N1CCCC(CCCN2CCC3(CC2)C(=O)NCN3c2ccccc2)(c2ccc(Cl)c(Cl)c2)C1", "note": "(stereo not given)", "IC50": 447}
{"smiles": "O=C(C1CCCC1)N1CCC(OCCN2CCC3(CC2)C(=O)NCN3c2ccccc2)(c2ccc(Cl)c(Cl)c2)C1", "note": "(stereo not given)", "IC50": 4790}
{"smiles": "O=C(c1ccco1)N1CCC(CCN2CCC3(CC2)C(=O)NCN3c2ccccc2)(c2ccc(Cl)c(Cl)c2)C1", "note": "(stereo not given)", "IC50": 1480}
{"smiles": "O=C(c1ccco1)N1CCC(OCCN2CCC3(CC2)C(=O)NCN3c2ccccc2)(c2ccc(Cl)c(Cl)c2)C1", "note": "(stereo not given)", "IC50": 3980}
{"smiles": "O=C(c1ccco1)N1CCC(CCCN2CCC3(CC2)C(=O)NCN3c2ccccc2)(c2ccc(Cl)c(Cl)c2)C1", "note": "(stereo not given)", "IC50": 141}
{"smiles": "CC(C)(C)OC(=O)N1CCC(CCCN2CCC3(CC2)C(=O)NCN3c2ccccc2)(c2ccccc2)CC1", "IC50": 8510}
{"smiles": "Cc1nc2ccccc2n1[C@H]1CC2CC[C@H](C1)N2CCC1(c2ccccc2)CCN(C(=O)C2CCCC2)CC1", "note": "(single isomer, unassigned)", "IC50": 20}
